{
  "source": "patent US20070099905A1",
  "about": "“Combinations of drugs for the treatment of neoplasms” (priority 2002, published 2007)",
  "key": {"[1]": {"test_system": "A549 human lung tumor xenografts", "assay": "A549 human lung tumor xenograft model", "format": "in vivo, SCID mice", "details": "for Reduction in Tumor Volume (% decrease relative to control), positive control: 20 mg/Kg (M, W, F); for Reduction in Tumor Volume (% decrease relative to control), positive control / Tumor volume compared to control animals, single agent alone: 2 week treatment; for Tumor volume compared to control animals, single agent alone: female SCID mice", "method": "(§1) All experiments were carried out using male or female 6-8 week old SCID Hsd:ICR(CD-1) mice (Harlan, Indianapolis, Ind.). A-549 cells were harvested, resuspended in DMEM minus serum, and injected subcutaneously into the right flanks (4×10^6 cells/flank in a 300 μL volume). HCT 116 cells were harvested, resuspended in McCoy's 5A minus serum, and injected subcutaneously into the right and left flanks (5×10^6 cells/flank in a 300 μL volume). Tumor volumes were determined by measuring the length (1) and the width (w) and calculating the volume (V=1 w^2/2). Depending on the study, the tumors were between about 150 mm^3-about 800 mm^3 at the time of animal randomization into treatment groups (n=8-10 mice per group).\n(§2) Control animals received 200 μL injections of vehicle only.\n(§3) Evaluation of the results included statistical analysis of differences in tumor size between test and control groups at the end of each treatment period. Group means were compared using a one-way ANOVA. If the ANOVA was significant, i.e., p≦0.05, a Dunnett's multiple comparison test was used to determine which groups were different. Only animals surviving to the completion of the treatment period were included in the analysis.\n(§4) A549 cells were injected subcutaneously into female SCID mice and the tumor volumes were allowed to reach about 400 mm^3 prior to animal randomization. Animals were administered one of the above combinations or saline vehicle control intraperitoneally five times per week (each day, Monday through Friday) for two weeks.\nas §4, with “male” for “female”, “drug combination” for “one of the above combinations”, “or” for “or saline”, “for three weeks. Treatment was stopped for a one week recovery period, then continued as before for an additional” for “for”"}, "[2]": {"details": "gastrointestinal tract; cited from earlier work"}, "[3]": {"details": "mouse, in vivo", "method": "Unless otherwise stated, drugs were administered daily Monday to Friday. Paclitaxel was administered 3 days per week, Monday, Wednesday, and Friday only. All drugs were administered by intraperitoneal injection in a volume of 100 μL/25 grams. Animals undergoing combination therapy received two individual injections for a total of 200 μL per mouse. Control animals received 200 μL injections of vehicle only."}, "HCT 116": {"test_system": "HCT 116", "assay": "HCT 116 human colon cancer xenograft model", "format": "in vivo, SCID mice", "details": "25 mg/Kg (M-F)", "method": "as §1, §2, §3"}, "[4]": {"details": "cited from earlier work"}, "[5]": {"details": "mice, single intraperitoneal injection 10 mg/kg; cited from earlier work"}, "[6]": {"target": "T1, protein tyrosine phosphatase 1B (PTP1B) (Homo sapiens, UniProt P18031)", "T1 sequence (P18031 1-435)": "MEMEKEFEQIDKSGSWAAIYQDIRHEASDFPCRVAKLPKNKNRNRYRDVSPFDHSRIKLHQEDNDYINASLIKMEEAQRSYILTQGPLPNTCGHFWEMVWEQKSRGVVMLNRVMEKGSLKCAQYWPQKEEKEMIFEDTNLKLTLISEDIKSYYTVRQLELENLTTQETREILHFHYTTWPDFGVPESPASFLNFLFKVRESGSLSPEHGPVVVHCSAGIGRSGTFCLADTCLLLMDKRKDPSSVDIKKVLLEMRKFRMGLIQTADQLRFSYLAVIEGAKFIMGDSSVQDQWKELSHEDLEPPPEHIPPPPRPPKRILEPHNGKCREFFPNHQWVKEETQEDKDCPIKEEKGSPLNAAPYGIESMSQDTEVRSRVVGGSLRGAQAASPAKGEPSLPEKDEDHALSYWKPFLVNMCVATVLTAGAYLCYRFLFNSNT", "details": "cited from earlier work"}, "endo-exonuclease": {"test_system": "endo-exonuclease", "details": "PCT Publication No. WO 01/35935; cited from earlier work"}, "[7]": {"test_system": "phosphatases of regenerating liver (PRL)", "details": "cited from earlier work"}},
  "note": "Values joined by “and” are separate entries in the source; they are usually repeats but may differ in a detail not shown here. Equal entries are not always repeated. Where two headings read alike, the source gives them in different places.",
  "data": [
    {"smiles": "CC(=O)O[C@H]1C(=O)[C@@]2(C)[C@H]([C@H](OC(=O)c3ccccc3)[C@]3(O)C[C@H](OC(=O)[C@H](O)[C@@H](NC(=O)c4ccccc4)c4ccccc4)C(C)=C1C3(C)C)[C@]1(OC(C)=O)CO[C@@H]1C[C@@H]2O", "note": "[Taxol, paclitaxel]", "values": [
      {"measurement": "Reduction in Tumor Volume (% decrease relative to control), positive control", "setting": "[1]", "result": "24% and 29%"},
      {"measurement": "Reduction in Tumor Volume (% decrease relative to control), positive control", "setting": "[1]; listed as paclitaxel", "result": 24, "unit": "%"},
      {"measurement": "Tumor volume less than vehicle control", "setting": "[1]; 20 mg/Kg, end of first treatment period (3 weeks), male SCID mice", "result": 27, "unit": "%"}
    ]},
    {"smiles": "CN(C)CCCN1c2ccccc2Sc2ccc(Cl)cc21", "note": "[chlorpromazine]", "values": [
      {"measurement": "Absorption", "setting": "[2]", "result": "readily absorbed"},
      {"measurement": "Tumor volume compared to control animals, single agent alone", "setting": "[1]", "result": "no decrease in tumor volumes"},
      {"measurement": "Time to sedation after administration", "setting": "[3]; SCID Hsd:ICR(CD-1), ip", "result": "≤ 10", "unit": "min"},
      {"measurement": "Sedation and hypothermia at lower doses", "setting": "[3]", "result": "reduced period of sedation and associated hypothermia"}
    ]},
    {"smiles": "O=c1[nH]cc(F)c(=O)[nH]1", "note": "[5-FU, 5-fluorouracil]", "values": [
      {"measurement": "Reduction in Tumor Volume (% decrease relative to control), positive control", "setting": "HCT 116", "result": 47, "unit": "%"}
    ]},
    {"smiles": "N=C(N)c1ccc(OCCCCCOc2ccc(C(=N)N)cc2)cc1", "note": "[Pentamidine isethionate, 4,4′-diamidino-diphenoxypentane di(β-hydroxyethanesulfonate)]", "values": [
      {"measurement": "Solubility", "setting": "[4]; ether, acetone, and chloroform", "result": "insoluble"},
      {"measurement": "Solubility", "setting": "[4]; water and glycerin", "result": "soluble"}
    ]},
    {"smiles": "N=C(N)c1ccc(OCCCCCOc2ccc(C(=N)N)cc2)cc1", "note": "[pentamidine]", "values": [
      {"measurement": "Tissue distribution", "setting": "[5]", "result": "concentration in the kidneys was the highest, followed by that in the liver"},
      {"measurement": "Inhibition of PTP1B", "setting": "[6]", "result": "effective inhibitor"},
      {"measurement": "Tumor volume compared to control animals, single agent alone", "setting": "[1]", "result": "no decrease in tumor volumes"},
      {"measurement": "Inhibition of endo-exonuclease activity", "setting": "endo-exonuclease", "result": "inhibit the activity"},
      {"measurement": "Inhibition of PRL", "setting": "[7]", "result": "potent inhibitor"}
    ]}
  ]
}
